According to patent US20240174723A1, “STAPLED ANTIMICROBIAL PEPTIDES (STAMPS) AND USES THEREOF” (Lytica Therapeutics, Inc., priority 2021, published 2024):
Positions of bridges follow the written chain, without caps; N, C: chain ends. Non-standard residues stand in square brackets, D forms with d. Residues, ends and D or L forms follow the SMILES beside them. S5 = C=CCCC[C@](C)(N)C(=O)O; Pra = C#CC[C@H](N)C(=O)O; Dap = NC[C@H](N)C(=O)O

Tests used:
E. coli = type: cell-based, Escherichia coli
Procedure: (§1) Antimicrobial Activity Assay: The following microbroth dilution protocol was adapted from CLSI to determine the minimum inhibitory concentration (MIC) of StAMPs. Briefly, Mueller-Hinton broth (MHB) or cation-adjusted Mueller-Hinton broth (MHB II) was prepared and autoclaved. Then, a colony of bacterial cells was picked and grown overnight in broth at 37° C. and then diluted and allowed to grow again for 3-4 hours. Serial dilutions of peptide stocks in water (10 μl) were prepared using clear round-bottom polypropylene 96-well plates. Then 90 μl of bacteria in broth was added to give a final inoculum of 5×10^5 CFU/ml. The plates were then covered with porous tape to reduce evaporation and incubated for 20-24 hours at 37° C. The MIC was the minimum peptide concentration at which no visible bacterial growth was observed.
(§2) Renal toxicity was measured after 90 minutes of incubation, while liver toxicity was measured after 48 hours of incubation with StAMPs. N/A=not tested. The following apply to all peptides (i.e., StAMPs) listed in Tables A-C: Crosslinks (X^1—X^2 and X^3—X^4): (alk); N-terminus: —NH2; C-terminus: amidated with —NH2; counterion: Cl^−. The following apply to all peptides (i.e., StAMPs) listed in Table D: Crosslinks (X^1—X^2 and X^3—X^4): (alk); N-terminus: —NH2; C-terminus: as shown in table; counterion: Cl^−.

A. baumannii = type: cell-based, Acinetobacter baumannii
Procedure: as §1, §2

P. aeruginosa = type: cell-based, Pseudomonas aeruginosa
Procedure: as §1, §2
StAMP Micelle Formulation: DSPE-MPEG(2000) was suspended in buffered saline at 50-100 mg/mL overnight. StAMP stock solutions at 5-20 mg/mL in buffered saline were prepared and equal volumes of micelle and StAMP stock solution were mixed at the desired StAMP:Lipid ratio. Suspensions were allowed to sit for 5-10 minutes at room temperature before being used in in vitro and in vivo assays. […]

K. pneumoniae = type: cell-based, Klebsiella pneumoniae
Procedure: as §1, §2

S. aureus = type: cell-based, Staphylococcus aureus
Procedure: as §1, §2

in vitro = type: cell-based; settings: human, Inhibitory Concentration at 50% Cytotoxicity (IC50) Human Liver Cells (HepG2)
Procedure: Cell culture: RPTEC were maintained in MEM media supplemented with growth factors. HEPG2 cell line was maintained in Eagle's Minimum Essential Medium (EMEM) supplemented with fetal bovine serum to a final concentration of 10%.
48 hours cytotoxicity assay: Cells were plated in a 96-well format, and after 4 hour incubation to allow attachment, serial dilutions of StAMPs from a 5 mg/mL water stock, or vehicle, were then added to the cells in a final volume of 100 μl. After incubating at 37° C. for 48 hours, 100 μl of CellTiter-Glo® reagent was added to the cells, and the plates were incubated 10 minutes at room temperature. Luminescence was then measured on a microplate reader.
as §2

Row | Structure (SMILES) | Minimum Inhibitory Concentration (MIC) E. coli (E. coli) | Minimum Inhibitory Concentration (MIC) A. baumannii (A. baumannii) | Minimum Inhibitory Concentration (MIC) P. aeruginosa (P. aeruginosa) | Minimum Inhibitory Concentration (MIC) K. pneumoniae (K. pneumoniae) | Minimum Inhibitory Concentration (MIC) S. aureus (S. aureus) | IC50 at 48 hours (in vitro)
1 | CC(C)[C@@H]1NC(=O)[C@@](C)(NC(=O)[C@H](C)NC(=O)[C@H](CCCCN)NC(=O)CNC(=O)[C@H](Cc2ccccc2)NC(=O)[C@H](CCCCN)NC(=O)[C@H](CCCCN)NC(=O)[C@H](CCCCN)NC(=O)[C@H](CO)NC(=O)[C@H](CN)NC(=O)[C@]2(C)CCCC=CCCC[C@](C)(NC(=O)CN)C(=O)NCC(=O)N[C@@H](CCCCN)C(=O)N[C@@H](Cc3ccccc3)C(=O)N2)CCCC=CCCC[C@@](C)(C(=O)N[C@@H](C)C(=O)N[C@@H](CCCCN)C(=O)N[C@@H](CCCCN)C(N)=O)NC(=O)[C@H](CCC(=O)O)NC(=O)CNC1=O [compound 85] (H-G[S5]GKF[S5][Dap]SKKKFGKA[S5]VGE[S5]AKK-NH2; staple 2-6, 16-20) | 2 µg/mL | 0.5 µg/mL | 2 µg/mL | 16 µg/mL | 64 µg/mL | > 200 µg/mL
2 | C#CC[C@H](NC(=O)[C@H](CCC(=O)O)NC(=O)CNC(=O)CNC(=O)[C@H](CCCCN)NC(=O)[C@H](CCCCN)NC(=O)[C@H](C)NC(=O)[C@]1(C)CCCC=CCCC[C@](C)(NC(=O)[C@H](C)NC(=O)[C@H](CCCCN)NC(=O)CNC(=O)[C@H](Cc2ccccc2)NC(=O)[C@H](CCCCN)NC(=O)[C@H](CCCCN)NC(=O)[C@H](CCCCN)NC(=O)[C@H](CCCCN)NC(=O)[C@H](CCCCN)NC(=O)[C@]2(C)CCCC=CCCC[C@](C)(NC(=O)CN)C(=O)NCC(=O)N[C@@H](CCCCN)C(=O)N[C@@H](Cc3ccccc3)C(=O)N2)C(=O)N[C@@H](C(C)C)C(=O)NCC(=O)N[C@@H](CCC(=O)O)C(=O)N1)C(N)=O [compound 95] (H-G[S5]GKF[S5]KKKKKFGKA[S5]VGE[S5]AKKGGE[Pra]-NH2; staple 2-6, 16-20) | 4 µg/mL | 2 µg/mL | 4 µg/mL | 64 µg/mL | >64 µg/mL | > 200 µg/mL
3 | CC(C)[C@@H]1NC(=O)[C@@](C)(NC(=O)[C@H](C)NC(=O)[C@H](CCCCN)NC(=O)CNC(=O)[C@H](Cc2ccccc2)NC(=O)[C@H](CCCCN)NC(=O)[C@H](CN)NC(=O)[C@H](CCCCN)NC(=O)[C@H](CCCCN)NC(=O)[C@H](CCCCN)NC(=O)[C@]2(C)CCCC=CCCC[C@](C)(NC(=O)CN)C(=O)NCC(=O)N[C@@H](CCCCN)C(=O)N[C@@H](Cc3ccccc3)C(=O)N2)CCCC=CCCC[C@@](C)(C(=O)N[C@@H](C)C(=O)N[C@@H](CCCCN)C(=O)N[C@@H](CCCCN)C(N)=O)NC(=O)[C@H](CCC(=O)O)NC(=O)CNC1=O [compound 48] (H-G[S5]GKF[S5]KKK[Dap]KFGKA[S5]VGE[S5]AKK-NH2; staple 2-6, 16-20) | 4 µg/mL | 2 µg/mL | 8 µg/mL | 16 µg/mL | >64 µg/mL | 
4 | CC(C)[C@@H]1NC(=O)[C@@](C)(NC(=O)[C@H](C)NC(=O)[C@H](CCCCN)NC(=O)CNC(=O)[C@H](Cc2ccccc2)NC(=O)[C@H](CN)NC(=O)[C@H](CCCCN)NC(=O)[C@H](CCCCN)NC(=O)[C@H](CCCCN)NC(=O)[C@H](CCCCN)NC(=O)[C@]2(C)CCCC=CCCC[C@](C)(NC(=O)CN)C(=O)NCC(=O)N[C@@H](CCCCN)C(=O)N[C@@H](Cc3ccccc3)C(=O)N2)CCCC=CCCC[C@@](C)(C(=O)N[C@@H](C)C(=O)N[C@@H](CCCCN)C(=O)N[C@@H](CCCCN)C(N)=O)NC(=O)[C@H](CCC(=O)O)NC(=O)CNC1=O [compound 49] (H-G[S5]GKF[S5]KKKK[Dap]FGKA[S5]VGE[S5]AKK-NH2; staple 2-6, 16-20) | 4 µg/mL | 2 µg/mL | 8 µg/mL | 8 µg/mL | >64 µg/mL | 
5 | CC(C)[C@@H]1NC(=O)[C@@](C)(NC(=O)[C@H](C)NC(=O)[C@H](CCCCN)NC(=O)CNC(=O)[C@H](Cc2ccccc2)NC(=O)[C@H](CCCCN)NC(=O)[C@H](CCCCN)NC(=O)[C@H](CCCCN)NC(=O)[C@H](CCCCN)NC(=O)[C@H](CCCCN)NC(=O)[C@]2(C)CCCC=CCCC[C@](C)(NC(=O)CN)C(=O)NCC(=O)N[C@@H](CCCCN)C(=O)N[C@@H](Cc3ccccc3)C(=O)N2)CCCC=CCCC[C@@](C)(C(=O)N[C@@H](C)C(=O)N[C@@H](CN)C(=O)N[C@@H](CCCCN)C(N)=O)NC(=O)[C@H](CCC(=O)O)NC(=O)CNC1=O [compound 51] (H-G[S5]GKF[S5]KKKKKFGKA[S5]VGE[S5]A[Dap]K-NH2; staple 2-6, 16-20) | 2 µg/mL | 2 µg/mL | 4 µg/mL | 4 µg/mL | >64 µg/mL | 
6 | CC(C)[C@@H]1NC(=O)[C@@](C)(NC(=O)[C@H](C)NC(=O)[C@H](CN)NC(=O)CNC(=O)[C@H](Cc2ccccc2)NC(=O)[C@H](CCCCN)NC(=O)[C@H](CCCCN)NC(=O)[C@H](CCCCN)NC(=O)[C@H](CCCCN)NC(=O)[C@H](CCCCN)NC(=O)[C@]2(C)CCCC=CCCC[C@](C)(NC(=O)CN)C(=O)NCC(=O)N[C@@H](CCCCN)C(=O)N[C@@H](Cc3ccccc3)C(=O)N2)CCCC=CCCC[C@@](C)(C(=O)N[C@@H](C)C(=O)N[C@@H](CCCCN)C(=O)N[C@@H](CCCCN)C(N)=O)NC(=O)[C@H](CCC(=O)O)NC(=O)CNC1=O [compound 50] (H-G[S5]GKF[S5]KKKKKFG[Dap]A[S5]VGE[S5]AKK-NH2; staple 2-6, 16-20) | 4 µg/mL | 2 µg/mL | 8 µg/mL | 8 µg/mL | >64 µg/mL | 
7 | CC(C)[C@@H]1NC(=O)[C@@](C)(NC(=O)[C@H](C)NC(=O)[C@H](CCCCN)NC(=O)CNC(=O)[C@H](Cc2ccccc2)NC(=O)[C@H](CCCCN)NC(=O)[C@H](CCCCN)NC(=O)[C@H](CCCCN)NC(=O)[C@H](CN)NC(=O)[C@H](CCCCN)NC(=O)[C@]2(C)CCCC=CCCC[C@](C)(NC(=O)CN)C(=O)NCC(=O)N[C@@H](CCCCN)C(=O)N[C@@H](Cc3ccccc3)C(=O)N2)CCCC=CCCC[C@@](C)(C(=O)N[C@@H](C)C(=O)N[C@@H](CCCCN)C(=O)N[C@@H](CCCCN)C(N)=O)NC(=O)[C@H](CCC(=O)O)NC(=O)CNC1=O [compound 47] (H-G[S5]GKF[S5]K[Dap]KKKFGKA[S5]VGE[S5]AKK-NH2; staple 2-6, 16-20) | 2 µg/mL | 2 µg/mL | 4 µg/mL | 6 µg/mL | >64 µg/mL | 
8 | CC(C)[C@@H]1NC(=O)[C@@](C)(NC(=O)[C@H](C)NC(=O)[C@H](CCCCN)NC(=O)CNC(=O)[C@H](Cc2ccccc2)NC(=O)[C@H](CCCCN)NC(=O)[C@H](CCCCN)NC(=O)[C@H](CCCCN)NC(=O)[C@H](CCCCN)NC(=O)[C@H](CCCCN)NC(=O)[C@]2(C)CCCC=CCCC[C@](C)(NC(=O)CN)C(=O)NCC(=O)N[C@@H](CCCCN)C(=O)N[C@@H](Cc3ccccc3)C(=O)N2)CCCC=CCCC[C@@](C)(C(=O)N[C@@H](C)C(=O)N[C@@H](CCCCN)C(=O)N[C@@H](CN)C(N)=O)NC(=O)[C@H](CCC(=O)O)NC(=O)CNC1=O [compound 52] (H-G[S5]GKF[S5]KKKKKFGKA[S5]VGE[S5]AK[Dap]-NH2; staple 2-6, 16-20) | 2 µg/mL | 2 µg/mL | 4 µg/mL | 8 µg/mL | >64 µg/mL | 
